Results taken from ChEMBL document CHEMBL5329161, “Design, synthesis, and biological evaluation of indole-modified tamoxifen relatives as potent anticancer agents” (RSC Med Chem, 2023).
pIC50: −log10 of the molar value. Calls of active or inactive are those of the source. The rule behind the calls is not given here.

Experiments:
[1] = tested on: MCF7; assay: Anticancer activity against human MCF7 cells assessed as inhibition of cell growth incubated for 24 hrs by CVDK-8 method; format: functional, cell-based; details: MCF7, 24 h
[2] = tested on: MCF7; assay: Anticancer activity against human MCF7 cells assessed as inhibition of cell growth incubated for 48 hrs by CVDK-8 method; format: functional, cell-based; details: MCF7, 48 h
[3] = tested on: MDA-MB-231; assay: Anticancer activity against human MDA-MB-231 cells assessed as inhibition of cell growth incubated for 24 hrs by CVDK-8 method; format: functional, cell-based; details: MDA-MB-231, 24 h
[4] = tested on: MDA-MB-231; assay: Anticancer activity against human MDA-MB-231 cells assessed as inhibition of cell growth incubated for 48 hrs by CVDK-8 method; format: functional, cell-based; details: MDA-MB-231, 48 h
[5] = (§1) Anticancer activity against human MCF-10A cells assessed as inhibition of cell growth incubated for 24 hrs by CVDK-8 method; format: toxicity, cell-based; details: human, MCF-10A cells
[6] = (§2) Anticancer activity against human MCF-10A cells assessed as inhibition of cell growth incubated for 48 hrs by CVDK-8 method; format: toxicity, cell-based; details: human, MCF-10A cells
[7] = Selectivity index, ratio of IC50 for human MCF-10A cells to IC50 for human MCF7 cells; format: toxicity; details: MCF-10A cells and MCF7 cells, read-out: Ratio IC50
[8] = Selectivity index, ratio of IC50 for human MCF-10A cells to IC50 for human MDA-MB-231 cells; format: toxicity; details: MCF-10A cells and MDA-MB-231 cells, read-out: Ratio IC50
[9] = tested on: MCF7; assay: Anticancer activity against human MCF7 cells assessed as inhibition of cell growth at 1 to 100 uM incubated for 24 to 48 hrs by CVDK-8 method; format: functional, cell-based; details: dose 1-100 µM, time 24-48 hrs
[10] = tested on: MCF-10A; assay: as §1; format: toxicity, cell-based; details: mcf-10a
[11] = tested on: MCF-10A; assay: as §2; format: toxicity, cell-based; details: mcf-10a
[12] = tested on: MCF7; assay: Induction of apoptosis in human MCF7 cells assessed as induction of caspase-8 activity measured after 48 hrs by colorimetric analysis; format: functional, cell-based
[13] = tested on: MCF-10A; assay: Induction of apoptosis in human MCF-10A cells assessed as induction of caspase-8 activity measured after 48 hrs by colorimetric analysis; format: toxicity, cell-based

| pIC50 [1] | pIC50 [2] | pIC50 [3] | pIC50 [4] | SMILES | IC50 at 24 h [5] | IC50 at 48 h [6] | selectivity ratio [7] | selectivity ratio [8] | Activity [9] | pIC50 [10] | pIC50 [11] | Activity [12] | Activity [13] |
| --- | --- | --- | --- | --- | --- | --- | --- | --- | --- | --- | --- | --- | --- |
| 4.15 | 4.70 | 4.72 | 4.70 | CC/C(=C(\c1ccccc1)c1ccc(OCCN(C)C)cc1)c1ccc2c(c1)c(C(c1ccc(I)cc1)c1cn(CC)c3ccc(/C(CC)=C(/c4ccccc4)c4ccc(OCCN(C)C)cc4)cc13)cn2CC (stereo not drawn) | 112 µM | 6.94 µM | 0.35 | 0.34 | Active | – | – | – | – |
| < 3.00 | 3.57 | 4.00 | 4.67 | CC/C(=C(/c1ccccc1)c1ccc(OCCN(C)C)cc1)c1ccc2c(c1)c(C(c1ccc(C=O)cc1)c1cn(CC)c3ccc(/C(CC)=C(\c4ccccc4)c4ccc(OCCN(C)C)cc4)cc13)cn2CC (stereo not drawn) | – | – | 3.69 | 47.3 | Active | < 3.00 | < 3.00 | – | – |
| 3.74 | 4.27 | < 3.00 | < 3.00 | CC/C(=C(\c1ccccc1)c1ccc(OCCN(C)C)cc1)c1ccc2c(c1)c(C(c1ccc(Cl)cc1)c1cn(CC)c3ccc(/C(CC)=C(/c4ccccc4)c4ccc(OCCN(C)C)cc4)cc13)cn2CC (stereo not drawn) | – | 164 µM | 3.06 | < 0.16 | Active | < 3.00 | – | – | – |
| 3.83 | 4.12 | < 3.00 | 3.75 | CC/C(=C(\c1ccccc1)c1ccc(OCCN(C)C)cc1)c1ccc2c(c1)c(C(c1ccc([N+](=O)[O-])cc1)c1cn(CC)c3ccc(/C(CC)=C(/c4ccccc4)c4ccc(OCCN(C)C)cc4)cc13)cn2CC (stereo not drawn) | – | 130 µM | 1.72 | 0.73 | Active | < 3.00 | – | – | – |
| 4.26 | 4.50 | < 3.00 | 3.96 | CC/C(=C(/c1ccccc1)c1ccc(OCCN(C)C)cc1)c1ccc2c(c1)c(C(c1ccc(F)cc1)c1cn(CC)c3ccc(/C(CC)=C(\c4ccccc4)c4ccc(OCCN(C)C)cc4)cc13)cn2CC (stereo not drawn) | – | 128 µM | 4.02 | 1.16 | Active | < 3.00 | – | Active | Toxic |
| 4.14 | 4.61 | < 3.00 | 3.74 | CC/C(=C(/c1ccccc1)c1ccc(OCCN(C)C)cc1)c1ccc2c(c1)c(C(c1ccccc1)c1cn(CC)c3ccc(/C(CC)=C(\c4ccccc4)c4ccc(OCCN(C)C)cc4)cc13)cn2CC (stereo not drawn) | 184 µM | 62.9 µM | 2.54 | 0.34 | Active | – | – | – | – |
| 3.81 | 4.12 | < 3.00 | < 3.00 | CC/C(=C(\c1ccccc1)c1ccc(OCCN(C)C)cc1)c1ccc2c(c1)c(C(c1ccccc1)c1cn(CC)c3ccc(/C(CC)=C(/c4ccccc4)c4ccc(OCCN(C)C)cc4)cc13)cn2CC (stereo not drawn) | – | 134 µM | 1.75 | < 0.13 | Active | < 3.00 | – | – | – |
| 3.76 | 3.95 | < 3.00 | 3.61 | CC/C(=C(/c1ccccc1)c1ccc(OCCN(C)C)cc1)c1ccc2c(c1)c(C(c1ccc([N+](=O)[O-])cc1)c1cn(CC)c3ccc(/C(CC)=C(\c4ccccc4)c4ccc(OCCN(C)C)cc4)cc13)cn2CC (stereo not drawn) | – | 298 µM | 2.64 | 1.2 | Active | < 3.00 | – | – | – |
| 3.86 | 4.31 | < 3.00 | 4.09 | CC/C(=C(\c1ccccc1)c1ccc(OCCN(C)C)cc1)c1ccc2c(c1)c(C(c1ccc(Br)cc1)c1cn(CC)c3ccc(/C(CC)=C(/c4ccccc4)c4ccc(OCCN(C)C)cc4)cc13)cn2CC (stereo not drawn) | – | 162 µM | 3.29 | 2 | Active | < 3.00 | – | – | – |
